In the supplement of paper PMC10307832:

Assays:
Assay in all cases: relative viability (nuclei count vs DMSO), 5 days (fraction); higher = more cells survive
NCI-H2405 = test system: NCI-H2405
Summary of the method: (§1)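 Dosing by pin tool came one day after lung cancer cell lines were seeded in 1536-well plates, using either one drug or a fixed anchor-drug dose plus five library-drug doses (not always all listed) in √10 steps. After 5 days, nuclei were counted on 4× images. Relative viability is treated-well nuclei count divided by vehicle-well nuclei count, and values are medians of duplicate plates.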

NCI-H1355 = test system: NCI-H1355
Summary of the method: as §1

NCI-H441 = test system: NCI-H441
Summary of the method: as §1

NCI-H23 = test system: NCI-H23
Summary of the method: as §1

SK-MES-1 = test system: SK-MES-1
Summary of the method: as §1

NCI-H2023 = test system: NCI-H2023
Summary of the method: as §1

NCI-H727 = test system: NCI-H727
Summary of the method: as §1

NCI-H2009 = test system: NCI-H2009
Summary of the method: as §1

UMC-11 = test system: UMC-11
Summary of the method: as §1

NCI-H322M = test system: NCI-H322M
Summary of the method: as §1

LCLC-97TM1 = test system: LCLC-97TM1
Summary of the method: as §1

NCI-H1755 = test system: NCI-H1755
Summary of the method: as §1

NCI-H2085 = test system: NCI-H2085
Summary of the method: as §1

ChaGo-K-1 = test system: ChaGo-K-1
Summary of the method: as §1

LOU-NH91 = test system: LOU-NH91
Summary of the method: as §1

NCI-H2170 = test system: NCI-H2170
Summary of the method: as §1

NCI-H650 = test system: NCI-H650
Summary of the method: as §1

RERF-LC-KJ = test system: RERF-LC-KJ
Summary of the method: as §1

NCI-H1437 = test system: NCI-H1437
Summary of the method: as §1

HCC-78 = test system: HCC-78
Summary of the method: as §1

ABC-1 = test system: ABC-1
Summary of the method: as §1

HOP-62 = test system: HOP-62
Summary of the method: as §1

SMILES: O=C(O)CCCCC(CCSCc1ccccc1)SCc1ccccc1 (stereo not given) [CPI-613] + COc1cc2c(Oc3ccc(NC(=O)C4(C(=O)Nc5ccc(F)cc5)CC4)cc3F)ccnc2cc1OCCCN1CCOCC1 [Foretinib] (partner 0.25 µM)
- relative viability (NCI-H2405; first compound 5 µM): 1.08
- relative viability (NCI-H2405; first compound 15.81 µM): 1.03
- relative viability (NCI-H2405; first compound 50 µM): 0.995
- relative viability (NCI-H2405; first compound 158.11 µM): 0.93
- relative viability (NCI-H2405; first compound 500 µM): 0.876
- relative viability (NCI-H1355; first compound 5 µM): 0.941
- relative viability (NCI-H1355; first compound 15.81 µM): 0.94
- relative viability (NCI-H1355; first compound 50 µM): 0.998
- relative viability (NCI-H1355; first compound 158.11 µM): 0.455
- relative viability (NCI-H1355; first compound 500 µM): 0.137
- relative viability (NCI-H441; first compound 5 µM): 0.962
- relative viability (NCI-H441; first compound 15.81 µM): 0.948
- relative viability (NCI-H441; first compound 50 µM): 0.937
- relative viability (NCI-H441; first compound 158.11 µM): 0.271
- relative viability (NCI-H441; first compound 500 µM): 0.076
- relative viability (NCI-H23; first compound 5 µM): 1.03
- relative viability (NCI-H23; first compound 15.81 µM): 0.917
- relative viability (NCI-H23; first compound 50 µM): 0.985
- relative viability (NCI-H23; first compound 158.11 µM): 0.402
- relative viability (NCI-H23; first compound 500 µM): 0.0153
- relative viability (SK-MES-1; first compound 5 µM): 0.999
- relative viability (SK-MES-1; first compound 15.81 µM): 0.901
- relative viability (SK-MES-1; first compound 50 µM): 0.843
- relative viability (SK-MES-1; first compound 158.11 µM): 0.831
- relative viability (SK-MES-1; first compound 500 µM): 0.84
- relative viability (NCI-H2023; first compound 5 µM): 0.704
- relative viability (NCI-H2023; first compound 15.81 µM): 0.719
- relative viability (NCI-H2023; first compound 50 µM): 0.875
- relative viability (NCI-H2023; first compound 158.11 µM): 0.0718
- relative viability (NCI-H2023; first compound 500 µM): 0.0092
- relative viability (NCI-H727; first compound 5 µM): 0.854
- relative viability (NCI-H727; first compound 15.81 µM): 1.39
- relative viability (NCI-H727; first compound 50 µM): 0.865
- relative viability (NCI-H727; first compound 158.11 µM): 0.572
- relative viability (NCI-H727; first compound 500 µM): 0.47
- relative viability (NCI-H2009; first compound 5 µM): 1.25
- relative viability (NCI-H2009; first compound 15.81 µM): 1.16
- relative viability (NCI-H2009; first compound 50 µM): 1.12
- relative viability (NCI-H2009; first compound 158.11 µM): 0.221
- relative viability (NCI-H2009; first compound 500 µM): 0.019
- relative viability (UMC-11; first compound 5 µM): 0.992
- relative viability (UMC-11; first compound 15.81 µM): 1.04
- relative viability (UMC-11; first compound 50 µM): 0.995
- relative viability (UMC-11; first compound 158.11 µM): 0.169
- relative viability (UMC-11; first compound 500 µM): 0.131
- relative viability (NCI-H322M; first compound 5 µM): 0.969
- relative viability (NCI-H322M; first compound 15.81 µM): 0.972
- relative viability (NCI-H322M; first compound 50 µM): 1.04
- relative viability (NCI-H322M; first compound 158.11 µM): 0.689
- relative viability (NCI-H322M; first compound 500 µM): 0.0324
- relative viability (LCLC-97TM1; first compound 5 µM): 0.95
- relative viability (LCLC-97TM1; first compound 15.81 µM): 0.935
- relative viability (LCLC-97TM1; first compound 50 µM): 0.926
- relative viability (LCLC-97TM1; first compound 158.11 µM): 0.324
- relative viability (LCLC-97TM1; first compound 500 µM): 0.0466
- relative viability (NCI-H1755; first compound 5 µM): 0.886
- relative viability (NCI-H1755; first compound 15.81 µM): 0.878
- relative viability (NCI-H1755; first compound 50 µM): 0.898
- relative viability (NCI-H1755; first compound 158.11 µM): 0.887
- relative viability (NCI-H1755; first compound 500 µM): 0.175
- relative viability (NCI-H2085; first compound 5 µM): 0.767
- relative viability (NCI-H2085; first compound 15.81 µM): 0.927
- relative viability (NCI-H2085; first compound 50 µM): 0.933
- relative viability (NCI-H2085; first compound 158.11 µM): 0.286
- relative viability (NCI-H2085; first compound 500 µM): 0.0979
- relative viability (ChaGo-K-1; first compound 5 µM): 0.818
- relative viability (ChaGo-K-1; first compound 15.81 µM): 0.901
- relative viability (ChaGo-K-1; first compound 50 µM): 0.929
- relative viability (ChaGo-K-1; first compound 158.11 µM): 0.245
- relative viability (ChaGo-K-1; first compound 500 µM): 0.105
- relative viability (LOU-NH91; first compound 5 µM): 0.863
- relative viability (LOU-NH91; first compound 15.81 µM): 0.902
- relative viability (LOU-NH91; first compound 50 µM): 0.949
- relative viability (LOU-NH91; first compound 158.11 µM): 0.963
- relative viability (LOU-NH91; first compound 500 µM): 0.916
- relative viability (NCI-H2170; first compound 5 µM): 0.767
- relative viability (NCI-H2170; first compound 15.81 µM): 0.906
- relative viability (NCI-H2170; first compound 50 µM): 0.929
- relative viability (NCI-H2170; first compound 158.11 µM): 0.795
- relative viability (NCI-H2170; first compound 500 µM): 0.139
- relative viability (NCI-H650; first compound 5 µM): 0.947
- relative viability (NCI-H650; first compound 15.81 µM): 1
- relative viability (NCI-H650; first compound 50 µM): 0.979
- relative viability (NCI-H650; first compound 158.11 µM): 0.836
- relative viability (NCI-H650; first compound 500 µM): 0.806
- relative viability (RERF-LC-KJ; first compound 5 µM): 0.878
- relative viability (RERF-LC-KJ; first compound 15.81 µM): 0.763
- relative viability (RERF-LC-KJ; first compound 50 µM): 0.889
- relative viability (RERF-LC-KJ; first compound 158.11 µM): 0.882
- relative viability (RERF-LC-KJ; first compound 500 µM): 0.851
- relative viability (NCI-H1437; first compound 5 µM): 1.22
- relative viability (NCI-H1437; first compound 15.81 µM): 1.23
- relative viability (NCI-H1437; first compound 50 µM): 1.29
- relative viability (NCI-H1437; first compound 158.11 µM): 0.426
- relative viability (NCI-H1437; first compound 500 µM): 0.0461
- relative viability (HCC-78; first compound 5 µM): 0.497
- relative viability (HCC-78; first compound 15.81 µM): 0.554
- relative viability (HCC-78; first compound 50 µM): 0.545
- relative viability (HCC-78; first compound 158.11 µM): 0.52
- relative viability (HCC-78; first compound 500 µM): 0.473
- relative viability (ABC-1; first compound 5 µM): 1.14
- relative viability (ABC-1; first compound 15.81 µM): 0.929
- relative viability (ABC-1; first compound 50 µM): 0.996
- relative viability (ABC-1; first compound 158.11 µM): 0.243
- relative viability (ABC-1; first compound 500 µM): 0.0969
- relative viability (HOP-62; first compound 5 µM): 1.06
- relative viability (HOP-62; first compound 15.81 µM): 1.04
- relative viability (HOP-62; first compound 50 µM): 1.11
- relative viability (HOP-62; first compound 158.11 µM): 0.39
- relative viability (HOP-62; first compound 500 µM): 0.231
